Source: patent US20250171463A1 (BIOGEN MA INC., priority 2022, published 2025)

Target: T1, EBP (Homo sapiens, UniProt Q15125)
T1 construct: HEK293T cells were utilized as the source of EBP enzyme; endogenous in cells; host or cells: HEK293T
Assay: EBP Functional Assay (EBP immunoaffinity LC-MS assay)
Assay type: biochemical
Details: EBP enzyme from HEK293T cells; 30 min with inhibitor, then zymosterol-d5, 37° C., 4 h; percent conversion to dehydrolathosterol-d5 by LC-APCI MRM MS
Procedure: The EBP immunoaffinity (IA) LC-MS assay measures the potency of small molecule inhibitors of EBP by quantifying their concentration-dependent changes in the enzyme's substrate and product using liquid chromatography atmospheric pressure chemical ionization multiple reaction monitoring mass spectrometry (LC-APCI MRM MS). HEK293T cells were utilized as the source of EBP enzyme. The enzyme was incubated with the small molecule inhibitors at variable concentrations for 30 min. Deuterated form of EBP substrate, zymosterol-d5 (Avanti Polar Lipids, Cat #700068P-1 mg), was then added and the plate was incubated at 37° C. for 4 h. Finally, the sterol isomers were extracted and injected to LC-APCI MRM MS. MRM transition used for the quantification for both zymosterol and […] (substrate and product of EBP enzymatic reaction, respectively) is 372.3-203.2, CE 30 and DP 80 in positive ion mode. Percent conversion of the zymosterol-d5 to dehydrolathosterol-d5 was used to derive IC50 curves. Tasin-1 (1′-[(4-Methoxyphenyl)sulfonyl]-4-methyl-1,4′-bipiperidine, CAS 792927-06-1) was used as the reference small molecule inhibitor.
Percent conversion versus the compound concentration data were fit to the following 4-parameter logistic model to generate IC50 curves: […]

T1 sequence (Q15125 whole entry): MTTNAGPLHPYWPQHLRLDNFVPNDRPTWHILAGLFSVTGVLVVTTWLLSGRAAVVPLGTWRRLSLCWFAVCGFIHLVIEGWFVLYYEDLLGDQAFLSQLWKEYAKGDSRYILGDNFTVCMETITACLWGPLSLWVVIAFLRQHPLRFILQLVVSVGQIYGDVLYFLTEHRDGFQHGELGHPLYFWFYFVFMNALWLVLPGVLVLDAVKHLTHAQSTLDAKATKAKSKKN

Row | Molecule | IC50 [nM]
1 | 4-((6-((2-methyl-6-(trifluoromethyl)pyridin-3-yl)sulfonyl)-2,6-diazaspiro[3.3]heptan-2-yl)methyl)tetrahydro-2H-pyran-4-ol [Example 75] | 250 to 4000
2 | Cc1nc(C(F)(F)F)ccc1S(=O)(=O)N1CC2(CN(C(C)C3CCOC3)C2)C1 (mixture of isomers) [Example 130] | < 100
3 | O=S(=O)(c1ccc(OC(F)F)cc1)N1CCOC2(CCN(C3CCOCC3)C2)C1 (racemic) [Example 2, 9-((4-(Difluoromethoxy)phenyl)sulfonyl)-2-(tetrahydro-2H-pyran-4-yl)-6-oxa-2,9-diazaspiro[4.5]decane] | 100 to 250
4 | O=S(=O)(c1ccc(OC(F)F)cc1)N1CCOC2(CCN(C3CCOC3)CC2)C1 (racemic) [Example 6, 4-((4-(Difluoromethoxy)phenyl)sulfonyl)-9-(tetrahydrofuran-3-yl)-1-oxa-4,9-diazaspiro[5.5]undecane] | 250 to 4000
5 | O=S(=O)(c1ccc(OC(F)F)cc1)N1CCO[C@@]2(CCN([C@H]3CCCOC3)C2)C1 (racemic) [Example 8, (±)—(R)-9-((4-(Difluoromethoxy)phenyl)sulfonyl)-2-((S)-tetrahydro-2H-pyran-3-yl)-6-oxa-2,9-diazaspiro[4.5]decane] | 250 to 4000
6 | O=S(=O)(c1ccc(OC(F)F)cc1)N1CCO[C@@]2(CCN([C@@H]3CCCOC3)C2)C1 (racemic) [Example 9, (±)—(R)-9-((4-(Difluoromethoxy)phenyl)sulfonyl)-2-((R)-tetrahydro-2H-pyran-3-yl)-6-oxa-2,9-diazaspiro[4.5]decane] | 250 to 4000
7 | O=S(=O)(c1ccc(OC(F)F)cc1)N1CCOC2(CCN(C3CC4(COC4)C3)C2)C1 (racemic) [Example 25, 9-((4-(Difluoromethoxy)phenyl)sulfonyl)-2-(2-oxaspiro[3.3]heptan-6-yl)-6-oxa-2,9-diazaspiro[4.5]decane] | < 100
8 | Cc1nc(C(F)(F)F)ccc1S(=O)(=O)N1CC2(CN(C3CC4(CCO4)C3)C2)C1 (racemic) [Example 69, rac-2-((2-methyl-6-(trifluoromethyl)pyridin-3-yl)sulfonyl)-6-(1-oxaspiro[3.3]heptan-6-yl)-2,6-diazaspiro[3.3]heptane] | 250 to 4000
9 | Cc1cc(C(F)(F)F)nc(C)c1S(=O)(=O)N1CC2(CN(CC3CCOC3)C2)C1 (racemic) [Example 103] | 100 to 250
10 | O=S(=O)(c1ccc(OC(F)F)cc1)N1CCO[C@]2(CCN(C3CCOCC3)C2)C1 (single isomer, unassigned) [Example 3] | 100 to 250
11 | O=S(=O)(c1ccc(OC(F)F)cc1)N1CCO[C@@]2(CCN(C3CCOCC3)C2)C1 (single isomer, unassigned) [Example 4] | < 100
12 | O=S(=O)(c1cc(F)cc(F)c1)N1CCO[C@]2(CCN(C3CCOCC3)C2)C1 (single isomer, unassigned) [Example 14] | < 100
13 | O=S(=O)(c1cc(F)cc(F)c1)N1CCO[C@@]2(CCN(C3CCOCC3)C2)C1 (single isomer, unassigned) [Example 15] | 100 to 250
14 | O=S(=O)(c1ccc(OC(F)F)cc1)N1CCO[C@@]2(CCN(C3CC4(COC4)C3)C2)C1 (single isomer, unassigned) [Example 26] | 100 to 250
15 | O=S(=O)(c1ccc(OC(F)F)cc1)N1CCO[C@]2(CCN(C3CC4(COC4)C3)C2)C1 (single isomer, unassigned) [Example 27] | 100 to 250
16 | COC1CCC(N2CC3(C2)CN(S(=O)(=O)c2ccc(C(F)F)nc2C2CC2)C3)CC1 (single isomer, unassigned) [Example 117, 2-((2-cyclopropyl-6-(difluoromethyl)pyridin-3-yl)sulfonyl)-6-(4-methoxycyclohexyl)-2,6-diazaspiro[3.3]heptane] | 250 to 4000
17 | COC1CCC(N2CC3(C2)CN(S(=O)(=O)c2ccc(C(F)F)nc2C2CC2)C3)CC1 (single isomer, unassigned) [Example 118, 2-((2-cyclopropyl-6-(difluoromethyl)pyridin-3-yl)sulfonyl)-6-(4-methoxycyclohexyl)-2,6-diazaspiro[3.3]heptane] | 100 to 250
18 | CC1(O)CCC(N2CC3(C2)CN(S(=O)(=O)c2cnc(C(F)(F)F)cc2C2CC2)C3)CC1 (single isomer, unassigned) [Example 123, 4-(6-((4-cyclopropyl-6-(trifluoromethyl)pyridin-3-yl)sulfonyl)-2,6-diazaspiro[3.3]heptan-2-yl)-1-methylcyclohexan-1-ol] | 100 to 250
19 | CC1(O)CCC(N2CC3(C2)CN(S(=O)(=O)c2cnc(C(F)(F)F)cc2C2CC2)C3)CC1 (single isomer, unassigned) [Example 124, 4-(6-((4-cyclopropyl-6-(trifluoromethyl)pyridin-3-yl)sulfonyl)-2,6-diazaspiro[3.3]heptan-2-yl)-1-methylcyclohexan-1-ol] | 100 to 250
20 | CCc1cc(C(F)(F)F)ncc1S(=O)(=O)N1CC2(CN(C3CCC(C)(O)CC3)C2)C1 (single isomer, unassigned) [Example 127, 4-(6-((4-ethyl-6-(trifluoromethyl)pyridin-3-yl)sulfonyl)-2,6-diazaspiro[3.3]heptan-2-yl)-1-methylcyclohexan-1-ol] | < 100
21 | CCc1cc(C(F)(F)F)ncc1S(=O)(=O)N1CC2(CN(C3CCC(C)(O)CC3)C2)C1 (single isomer, unassigned) [Example 128, 4-(6-((4-ethyl-6-(trifluoromethyl)pyridin-3-yl)sulfonyl)-2,6-diazaspiro[3.3]heptan-2-yl)-1-methylcyclohexan-1-ol] | < 100

Second part, the molecule after the results:

Row | IC50 [nM] | Molecule
22 | < 100 | Cc1nc(C(F)(F)F)ccc1S(=O)(=O)N1CC2(CN(C(C)C3(C)CCCO3)C2)C1 (mixture of isomers) [Example 135]
23 | < 100 | Cc1nc(C(F)(F)F)ccc1S(=O)(=O)N1CC2(CN(C(C)C3CCCO3)C2)C1 (mixture of isomers) [Example 138]
24 | < 100 | Cc1nc(C(F)(F)F)ccc1S(=O)(=O)N1CC2(CN(C(C)C3CCOCC3)C2)C1 (racemic) [Example 153, rac-2-((2-methyl-6-(trifluoromethyl)pyridin-3-yl)sulfonyl)-6-(1-(tetrahydro-2H-pyran-4-yl)ethyl)-2,6-diazaspiro[3.3]heptane]
25 | < 100 | Cc1nc(C(F)(F)F)ccc1S(=O)(=O)N1CC2(CN(C(C)C3COC3)C2)C1 (racemic) [Example 155, rac-2-((2-methyl-6-(trifluoromethyl)pyridin-3-yl)sulfonyl)-6-(1-(oxetan-3-yl)ethyl)-2,6-diazaspiro[3.3]heptane]
26 | < 100 | Cc1nc(C(F)(F)F)ccc1S(=O)(=O)N1CC2(CN(C(C)C34COC(C)(C3)C4)C2)C1 (racemic) [Example 167, rac-2-(1-(1-methyl-2-oxabicyclo[2.1.1]hexan-4-yl)ethyl)-6-((2-methyl-6-(trifluoromethyl)pyridin-3-yl)sulfonyl)-2,6-diazaspiro[3.3]heptane]
27 | 100 to 250 | Cc1nc(C(F)(F)F)ccc1S(=O)(=O)N1CC2(CN(CC[C@@H]3COC(C)(C)O3)C2)C1 (racemic) [Example 173]
28 | 100 to 250 | Cc1nc(C(F)(F)F)ccc1S(=O)(=O)N1CC2(CN(C[C@H]3[C@H](C#N)C3(C)C)C2)C1 (racemic) [Example 174]
29 | < 100 | Cc1nc(C(F)(F)F)ccc1S(=O)(=O)N1CC2(CN(C[C@@H]3CC[C@H]4C[C@H]3CO4)C2)C1 (racemic) [Example 175]
30 | < 100 | Cn1nc(C(F)(F)F)cc1S(=O)(=O)N1CC2(CN(CC3CCOC3)C2)C1 (racemic) [Example 197, rac-2-((1-Methyl-3-(trifluoromethyl)-1H-pyrazol-5-yl)sulfonyl)-6-((tetrahydrofuran-3-yl)methyl)-2,6-diazaspiro[3.3]heptane]
31 | < 100 | Cn1nc(C(F)(F)F)cc1S(=O)(=O)N1CC2(CN(CC3CCOC(C)(C)C3)C2)C1 (racemic) [Example 198, rac-2-((2,2-dimethyltetrahydro-2H-pyran-4-yl)methyl)-6-((1-methyl-3-(trifluoromethyl)-1H-pyrazol-5-yl)sulfonyl)-2,6-diazaspiro[3.3]heptane]
32 | < 100 | CC(C1CCOCC1)N1CC2(C1)CN(S(=O)(=O)c1cc(C(F)(F)F)nn1C)C2 (racemic) [Example 212, rac-2-((1-methyl-3-(trifluoromethyl)-1H-pyrazol-5-yl)sulfonyl)-6-(1-(tetrahydro-2H-pyran-4-yl)ethyl)-2,6-diazaspiro[3.3]heptane]
33 | 250 to 4000 | Cn1nc(C(F)(F)F)cc1S(=O)(=O)N1CC2(CN(CC3COCCO3)C2)C1 (racemic) [Example 215, rac-2-((1,4-dioxan-2-yl)methyl)-6-((1-methyl-3-(trifluoromethyl)-1H-pyrazol-5-yl)sulfonyl)-2,6-diazaspiro[3.3]heptane]
34 | 250 to 4000 | Cc1nc(C(F)(F)F)ccc1S(=O)(=O)N1CC2(CN(CC3COCCO3)C2)C1 (racemic) [Example 216, rac-2-((1,4-dioxan-2-yl)methyl)-6-((2-methyl-6-(trifluoromethyl)pyridin-3-yl)sulfonyl)-2,6-diazaspiro[3.3]heptane]
35 | < 100 | Cc1nc(C(F)(F)F)ccc1S(=O)(=O)N1CC2(CN(C(C)C3CCOCC3)C2)C1 (single isomer, unassigned) [Example 156]
36 | 250 to 4000 | Cc1nc(C(F)(F)F)ccc1S(=O)(=O)N1CC2(CN(C(C)C3COC3)C2)C1 (single isomer, unassigned) [Example 158]
